Consider five molecules from patent publication US7250492B2, “Compositions and methods for inhibition of cancer invasion and angiogenesis” (The Research Foundation at State University of New York, priority 2000, dated 2007).

One experiment concerns the target T1, seprase-DPPIV complex (Homo sapiens, UniProt P27487+Q12884).
T1 construct: The seprase-DPPIV complex was isolated from WI38 RIPA extracts using mAbs D28; endogenous in cells; host or cells: WI38 human fibroblasts (RIPA extract, immuno-isolated on mAb D28 or E3 beads)
In words: collagen-degrading activity: peptide release from biotinylated type I collagen gel. It counts as biochemical. The note with it: 37° C., 8 h; mAb 5 μg/ml, AEBSF 20 μM, CG1847 50 nM. As for the experimental part: FIG. 9. Collagen-degrading activity of the seprase-DPPIV complex. Collagen-degrading activities of the protease complex and purified DPPIV were determined by the release of peptide fragments from biotinylated type I collagen gel in the presence of these enzymes. The seprase-DPPIV complex was isolated from WI38 RIPA extracts using mAbs D28 (lane marked Ip Seprase) and E3 (lane marked Ip DPPIV) beads, seprase from LOX WGA fraction using mAb D28 (lane marked Ip Seprase*), MMP-2 from media conditioned by MMP-2 COS cell transfectants (lane marked MMP-2), and proteins associated with β3 integrin were from WI38 RIPA extracts using HB242 (lane marked Ip β3 integrin). All enzymes, including the protease complex, purified seprase, MMP-2, and proteins associated with β1 or β3 integrin were applied at the concentration of 50 ng/ml. […]
Collagen-degrading activity of isolated DPPIV or seprase-DPPIV complex was determined by the release of peptide fragments from biotinylated type I collagen gel by immuno-isolated proteases or the protease complex. […]

The target of the next experiment is T2, seprase (Homo sapiens, UniProt Q12884).
T2 sequence (Q12884 1-760): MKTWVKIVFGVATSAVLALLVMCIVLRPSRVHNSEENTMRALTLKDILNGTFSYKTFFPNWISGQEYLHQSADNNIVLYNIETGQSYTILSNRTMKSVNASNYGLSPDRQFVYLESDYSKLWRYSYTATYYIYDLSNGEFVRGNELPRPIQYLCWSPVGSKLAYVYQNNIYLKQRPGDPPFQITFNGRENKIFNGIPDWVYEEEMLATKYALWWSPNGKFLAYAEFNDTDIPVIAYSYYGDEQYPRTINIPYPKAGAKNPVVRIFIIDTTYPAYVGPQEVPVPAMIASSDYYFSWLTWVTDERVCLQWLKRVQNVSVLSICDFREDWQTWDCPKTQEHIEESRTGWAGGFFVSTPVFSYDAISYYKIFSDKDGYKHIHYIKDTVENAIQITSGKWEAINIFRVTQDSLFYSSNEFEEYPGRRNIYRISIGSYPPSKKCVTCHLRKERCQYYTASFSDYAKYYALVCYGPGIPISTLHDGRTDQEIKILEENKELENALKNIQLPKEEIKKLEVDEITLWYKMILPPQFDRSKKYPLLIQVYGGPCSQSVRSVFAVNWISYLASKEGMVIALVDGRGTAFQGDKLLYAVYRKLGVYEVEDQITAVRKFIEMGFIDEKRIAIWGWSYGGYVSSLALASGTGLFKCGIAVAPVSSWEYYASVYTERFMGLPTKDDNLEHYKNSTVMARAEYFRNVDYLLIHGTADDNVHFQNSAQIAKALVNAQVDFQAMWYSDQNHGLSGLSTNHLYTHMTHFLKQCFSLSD
To be noted: cited from earlier work.

The target of another experiment is DPPIV (Homo sapiens, UniProt P27487). To be noted: reversible DPPIV inhibitor; cited from earlier work.

A word on the Ki: it is a dissociation constant, usually derived from enzyme kinetics or from competition with a known ligand.

Molecules are shown by their SMILES.

Sequence of DPPIV (P27487 whole entry, species assumed): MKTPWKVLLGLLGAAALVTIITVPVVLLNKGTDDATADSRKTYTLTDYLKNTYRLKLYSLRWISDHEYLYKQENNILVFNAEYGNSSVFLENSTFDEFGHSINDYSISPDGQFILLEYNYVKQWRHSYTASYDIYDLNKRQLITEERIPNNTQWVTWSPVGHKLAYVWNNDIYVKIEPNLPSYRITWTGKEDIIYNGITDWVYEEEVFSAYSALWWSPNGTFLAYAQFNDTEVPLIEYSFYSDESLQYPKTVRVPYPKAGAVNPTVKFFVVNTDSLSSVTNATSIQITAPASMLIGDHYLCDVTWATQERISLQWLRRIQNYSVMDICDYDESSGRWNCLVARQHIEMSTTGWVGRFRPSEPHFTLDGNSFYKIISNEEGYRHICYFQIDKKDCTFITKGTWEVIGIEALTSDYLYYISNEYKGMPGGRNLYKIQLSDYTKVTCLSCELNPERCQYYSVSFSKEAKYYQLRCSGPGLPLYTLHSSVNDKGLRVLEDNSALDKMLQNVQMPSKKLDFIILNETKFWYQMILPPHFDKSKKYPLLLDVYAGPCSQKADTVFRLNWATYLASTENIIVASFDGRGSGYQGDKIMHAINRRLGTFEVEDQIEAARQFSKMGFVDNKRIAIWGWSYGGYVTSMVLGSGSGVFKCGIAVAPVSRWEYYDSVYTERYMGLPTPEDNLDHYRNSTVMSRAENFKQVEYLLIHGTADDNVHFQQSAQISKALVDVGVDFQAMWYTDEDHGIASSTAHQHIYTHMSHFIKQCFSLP
T1 sequence (P27487 whole entry, one chain of several): as the sequence (P27487 whole entry, species assumed) above

With `NCCc1ccc(S(=O)(=O)F)cc1` [AEBSF], the “degradation of collagen by the seprase-DPPIV complex” value at seprase-DPPIV complex is recorded as “blocked”. Besides, the seprase gelatinase activity entry on seprase was “completely blocked”. Take `N=C(N)c1ccc(CS(=O)(=O)F)cc1` [APSF]: on seprase, the seprase gelatinase activity entry was “completely blocked”.

For the molecule `NC(CCC(=O)NOC(=O)c1ccccc1)C(=O)N1CCCC1` (stereo not shown) [H-Glu(NHO-Bz)-Pyrr], the Ki on DPPIV is 500 nM. As for `CCN1C(=O)C=CC1=O` [NEM], at seprase, the “inhibition of seprase activity” value is “inhibited”. Consider `O=S(=O)(F)Cc1ccccc1` [PMSF], for which, at seprase, the “inhibition of seprase activity” value was “inhibits” and the seprase gelatinase activity result was “completely blocked”.
